Assay results reported in PMC7942396, “Drug Repurposing Screen for Compounds Inhibiting the Cytopathic Effect of SARS-CoV-2” (Frontiers in Pharmacology, 2021).
Structures can show the parent of a compound that is named as a salt. Where two headings read alike, the source gives them in different places. *1 amine or outer side, *2 acyl side, *3 side chain or, on linkers, in order; H or OH if unused. Where a SMILES comes first, the peptide text is derived from it. Bridges are numbered along the chain shown (N, C = ends). [ ]: non-standard residue; d: D form. The star is where a group is joined. pTerphenylCO(4''-OnC5H11) = CCCCCOc1ccc(-c2ccc(-c3ccc(C(=O)*)cc3)cc2)cc1; Orn(4R-OH,5R-OH) = O=C([C@H](C[C@@H](O)[C@@H](O)N[*:3])N[*:1])[*:2]; hTyr(3S-OH,4S-OH) = N[C@H](C(=O)O)[C@H](O)[C@@H](O)c1ccc(O)cc1; Pro(3S-OH,4S-Me) = C[C@H]1CN[C@H](C(=O)O)[C@H]1O; Hyp = O=C(O)[C@@H]1C[C@@H](O)CN1

Legend:
[1] = system: SARS-CoV-2 (USA_WA1/2020); experiment: microbe, parasite or virus in culture; type: cell-based
in vitro = details: African green monkey
[2] = Severe acute respiratory syndrome coronavirus 2, Vero C1008, SARS-CoV-2 CPE assay, Vero E6 cells, confirmed anti-SARS-CoV-2 compounds, read-out: CPE EC50
[3] = Severe acute respiratory syndrome coronavirus 2, Vero C1008, SARS-CoV-2 CPE assay, Vero E6 cells, efficacy, read-out: CPE % Efficacy
[4] = Severe acute respiratory syndrome coronavirus 2, Vero C1008, SARS-CoV-2 CPE assay, Vero E6 cells, read-out: CPE % Efficacy
[5] = Severe acute respiratory syndrome coronavirus 2, Vero C1008, SARS-CoV-2 CPE assay, Vero E6 cells, read-out: CPE EC50
[6] = Severe acute respiratory syndrome coronavirus 2, Vero C1008, […], DMSO 0%, no-virus control 100%, hit confirmation, read-out: CPE % efficacy
[7] = Severe acute respiratory syndrome coronavirus 2, Vero C1008, 72 h, read-out: CPE EC50
[8] = Severe acute respiratory syndrome coronavirus 2, Vero C1008, read-out: CPE % Efficacy
[9] = Severe acute respiratory syndrome coronavirus 2, Vero C1008, read-out: CPE EC50 (uM)

Structure (SMILES)	EC50 [1, 2]	Emax [1, 3]	cytotoxicity at 72 h (in vitro)	Emax [1, 4]	CC50 (in vitro)	cytotoxicity (in vitro)	further results
O=C(CCCN1CCC2(CC1)C(=O)NCN2c1ccccc1)c1ccc(F)cc1 [Spiperone]	4.47 µM	61.2%	30%				CC50 at 72 h (in vitro): 3.55 µM
Fc1ccc2[nH]ccc2c1-c1nc(N2CCOCC2)c2sc(CN3CCN(CC4CC4)CC3)cc2n1 [PI-3065]			52.2%	32.7%			EC50 [1, 5]: 14.1 µM; CC50 at 72 h (in vitro): 5.62 µM
CCCCCOc1ccc(-c2ccc(-c3ccc(C(=O)N[C@H]4C[C@@H](O)[C@@H](O)NC(=O)[C@@H]5[C@@H](O)[C@@H](C)CN5C(=O)[C@H]([C@@H](C)O)NC(=O)[C@H]([C@H](O)[C@@H](O)c5ccc(O)cc5)NC(=O)[C@@H]5C[C@@H](O)CN5C(=O)[C@H]([C@@H](C)O)NC4=O)cc3)cc2)cc1 [Anidulafungin] ({pTerphenylCO(4''-OnC5H11)}-[Orn(4R-OH,5R-OH)]T[Hyp][hTyr(3S-OH,4S-OH)]T[Pro(3S-OH,4S-Me)]; lactam 1-C)	6.95 µM	68.4%			8.75 µM	33.7%	
C[C@@H](C(=O)Nc1ccc(Cl)cc1)C1CCC(c2ccnc3ccc(F)cc23)CC1 (stereo partly shown) [BMS-986205]				69.8%		37.7%	
CCNCCc1ccc(CN(CC)c2cc(OC)ccc2[C@@H]2CCc3cc(O)ccc3C2)cc1 [Elacestrant]	3.98 µM	104%	104%				CC50 at 72 h (in vitro): 12.6 µM
Cn1c(Nc2ccc(C(F)(F)F)cc2)nc2cc(Oc3ccnc(-c4ncc(C(F)(F)F)[nH]4)c3)ccc21 [CHIR-265]	0.79 µM	31.7%			0.32 µM	92.7%	
CN(C)CCOC(c1ccccc1)c1ccc(Br)cc1 (stereo not shown) [Bromodiphenhydramine]			0%	36%			EC50 [1, 5]: 12.6 µM
CCCCc1oc2ccccc2c1C(=O)c1cc(I)c(OCCN(CC)CC)c(I)c1 [Amiodarone hydrochloride, reference compound]						< 30%	Emax [1, 6]: 100%
CCCC[C@@H](C=O)NC(=O)[C@H](CC(C)C)NC(=O)OCc1ccccc1 [Calpeptin, reference compound]						< 30%	EC50 [1, 7]: 0.5 µM; Emax [1, 6]: 112%
CCCCCCC(C)(C)c1cc(O)c2c(c1)OC(C)(C)[C@H]1CC=C(CO)C[C@H]21 [Dexanabinol, reference compound]						< 30%	EC50 [1, 7]: 10 µM; Emax [1, 6]: 111%
CN1CCC(=C2c3ccccc3C=Cc3ccccc32)CC1 [Cyproheptadine hydrochloride]		50%			12.6 µM	20.2%	
OCCOc1ccc(/C(=C(/CCCl)c2ccccc2)c2ccccc2)cc1 [Ospemifene]					12.6 µM	26.6%	Emax [1, 8]: 48.2%; EC50 [1, 9]: 12.6 µM
COc1cc(O)c2c(c1)[C@H]1O[C@@H]1C[C@H](O)[C@H](O)C(=O)/C=C\C[C@H](C)OC2=O [Hypothemycin]				81.2%	12.6 µM	60.1%	EC50 [1, 5]: 12.6 µM
Cc1cc(C2CCCCC2)n(O)c(=O)c1 [Ciclopirox]	8.91 µM	63.4%	56.1%				CC50 at 72 h (in vitro): 2.51 µM
CN1CC[C@@H](c2c(O)cc(O)c3c(=O)cc(-c4ccc(C(F)(F)F)cc4Cl)oc23)[C@@H]1CO [Voruciclib]				39.2%		12.9%	EC50 [1, 5]: 14.1 µM
CNCc1ccc(-c2cc(-c3nc(-c4ccc(S(=O)(=O)C(C)C)cc4)cnc3N)on2)cc1 [Berzosertib, reference compound]							Shape of concentration-response in the CPE assay ([1]; Figure 3): bell-shaped concentration-responses due to cytotoxicity; EC50 [1, 7]: 0.71 µM; Emax [1, 6]: 87.9%; CC50 at 72 h (in vitro): 11.2 µM
COCCN1CCN(Cc2ccc(-c3n[nH]c4c3C(=O)c3c(NC(=O)NN5CCOCC5)cccc3-4)cc2)CC1 [RGB-286638]	2.82 µM	111%	37.9%				CC50 at 72 h (in vitro): 0.32 µM
CCn1c(-c2nonc2N)nc2cnc(Oc3cccc(NC(=O)c4ccc(OCCN5CCOCC5)cc4)c3)cc21 [GSK-269962A]	7.94 µM	41.8%			2 µM	56.8%	
CCn1c(=O)c(-c2cc(NC(=O)Nc3ccccc3)c(F)cc2Br)cc2cnc(NC)cc21 [DCC-2618]			48.5%	65.4%			EC50 [1, 5]: 12.6 µM; CC50 at 72 h (in vitro): 11.2 µM
CN1CCN(CCCN2c3ccccc3Sc3ccc(S(=O)(=O)N(C)C)cc32)CC1 [Thioproperazine dimethanesulfonate]	8.91 µM	54%	19.6%				CC50 at 72 h (in vitro): 15.8 µM
O[C@H]1[C@H]2c3cc4c(cc3CN3CCC(=C[C@@H]1O)[C@H]23)OCO4 [Lycorine hydrochloride]	0.63 µM	34.6%			3.55 µM	90.6%	
CN(C)c1cc2c(cc1Sc1nc3c(N)nccc3n1CCNCC(C)(C)C)OCO2 [CUDC-305]	2.51 µM	74.5%	27.7%				CC50 at 72 h (in vitro): 0.71 µM
CCCNCC(O)COc1ccccc1C(=O)CCc1ccccc1 (stereo not shown) [Propafenone hydrochloride]				61.6%		0%	EC50 [1, 5]: 14.1 µM

Structure (SMILES)	EC50 [1, 2]	Emax [1, 3]	cytotoxicity at 72 h (in vitro)	Emax [1, 4]	CC50 (in vitro)	cytotoxicity (in vitro)	further results
CNCCCC1c2ccccc2C=Cc2ccccc21 [Protriptyline hydrochloride]					12.6 µM	17.4%	Emax [1, 8]: 58.2%; EC50 ([1]; Severe acute respiratory syndrome coronavirus 2, Vero C1008, read-out: CPE EC50): 11.2 µM
CN1CCN(CC/C=C2/c3ccccc3Sc3ccc(S(=O)(=O)N(C)C)cc32)CC1 [THIOTHIXENE]	3.98 µM	70.6%			12.6 µM	108%	
CN(C)CCCN1c2ccccc2CCc2ccc(Cl)cc21 [Clomipramine hydrochloride]		91.6%				33.2%	
O=c1c2ccccc2[se]n1-c1ccccc1 [Ebselen]	11.2 µM	38.1%	0%				
COC(=O)[C@H]1[C@H]2C[C@@H]3c4[nH]c5cc(OC)ccc5c4CCN3C[C@H]2C[C@@H](OC(=O)/C=C/c2ccc(O)c(OC)c2)[C@@H]1OC [Rescimetol, reference compound]			< 30%				EC50 [1, 7]: 8.9 µM; Emax [1, 6]: 81.8%
O=c1[nH]c2ccccc2n1CCCN1CCN(C(c2ccccc2)c2ccccc2)CC1 [Oxatomide]	10 µM	83.9%	31.3%				
N#Cc1ccc2c(c1)N(CCCN1CCC(O)CC1)c1ccccc1S2 [PERICIAZINE]				107%		23.1%	EC50 [1, 5]: 12.6 µM
Clc1ccc2c(c1)N=C(N1CCNCC1)c1ccccc1N2 [N-Desmethylclozapine]			20.1%	31.1%			EC50 [1, 5]: 14.1 µM; CC50 at 72 h (in vitro): 10 µM
CN(C)CCCN1c2ccccc2CCc2ccccc21 [Imipramine]				57.6%		0%	EC50 [1, 5]: 12.6 µM
NC(=O)c1cnc(N[C@@H]2CCCC[C@@H]2N)nc1Nc1cccc(-n2nccn2)c1 [PRT-062607]	11.2 µM	66.4%				24.9%	
CN1CCN(CCCN2c3ccccc3Sc3ccc(Cl)cc32)CC1 [Prochlorperazine dimaleate]		107%			22.4 µM	103%	
Cc1cccc(/C=N/Nc2cc(N3CCOCC3)nc(OCCc3ccccn3)n2)c1 [Apilimod, reference compound]			< 30%				EC50 [1, 7]: 0.023 µM; Emax [1, 6]: 104%
CN(C)CCCN1c2ccccc2Sc2ccccc21 [Promazine hydrochloride]	10 µM	55.8%				9.4%	
CCCCOc1cc(C(=O)NCCN(CC)CC)c2ccccc2n1 [Dibucaine]			0%	61.8%			EC50 [1, 5]: 12.6 µM
Cc1ccc(-c2cc(C(F)(F)F)nn2-c2ccc(S(N)(=O)=O)cc2)cc1 [Celecoxib]	11.2 µM	79.2%			15.8 µM	9%	
CN(C)CCC=C1c2ccccc2C=Cc2ccccc21 [Cyclobenzaprine hydrochloride]						23.9%	Emax [1, 8]: 77.2%; EC50 [1, 9]: 12.6 µM
CN1[C@@H]2CC[C@H]1C[C@@H](OC(c1ccccc1)c1ccccc1)C2 [Benztropine mesylate]				59%		0%	
CN(C)CC/C=C1\c2ccccc2CSc2ccccc21 [Dosulepin hydrochloride]				30.8%	12.6 µM	17.2%	EC50 [1, 5]: 14.1 µM
CCC(=O)c1ccc2c(c1)N(CCCN(C)C)c1ccccc1S2 [Propionylpromazine hydrochloride]	11.2 µM	72.3%	19.8%				
Cc1cc(O)c2c(c1)O[C@@]1(C)CC[C@H]3C(C)(C)CCC[C@]34CO[C@@H]2[C@H]41 [Siccanin]			0%	104%			EC50 [1, 5]: 12.6 µM
O=c1ccc2ccc(OCCCCN3CCN(c4cccc5sccc45)CC3)cc2[nH]1 [Brexpiprazole]				94.9%	11.2 µM	25.1%	EC50 [1, 5]: 14.1 µM
CC1(C)CC(=O)c2c(C(F)(F)F)nn(-c3ccc(C(N)=O)c(N[C@H]4CC[C@H](OC(=O)CN)CC4)c3)c2C1 [SNX-5422]	1.58 µM	33.8%			0.56 µM	27.4%	
Clc1ccc2c(c1)CCc1cccnc1C2=C1CCNCC1 [Desloratadine]						14.2%	
